The source of these data is patent publication US20230088644A1, “COMPOSITION FOR INDUCING DIFFERENTIATION INTO INSULIN-PRODUCING CELLS, AND USE THEREOF” (SEOUL NATIONAL UNIVERSITY R&DB FOUNDATION, priority 2020, published 2023).

For assay [1], the system named is human bone marrow cells. The note with it: 5 mM putrescine, 6 days, DMEM; compared to control without putrescine.
In assay [2] the test system is human umbilical cord blood cells. The assay is classed as cell-based. The protocol:
Umbilical cord blood-derived mononuclear cells were freshly isolated using Ficoll-gradient protocol and suspended in a lysis solution (BD Pharmingen) to remove red blood cells.
Differentiation was induced by treating (priming) with putrescine in the same manner as in the method of Example 1.2, except that putrescine was added to a concentration of 1 mM or 5 mM, and the gene expression levels for insulin (INS) and factors (MAFA, NEUROG3) that promote the differentiation into insulin-producing beta cells were measured by performing quantitative real time PCR in the same manner as in the method of Example 1.2.
(§1) Samples were divided into (1) putrescine alone-treated group (5 mM), (2) putrescine (5 mM) and glucosamine (5 mM)-co-treated group, (3) putrescine (5 mM), glucosamine (5 mM), and nicotinamide (10 mM)-co-treated group, and (4) control (non-treated group). Umbilical cord blood cells (prepared in the same manner as in Example 1.3) and mouse bone marrow cells (prepared in the same manner as in Example 1.1) were cultured in suspension to induce the differentiation into insulin-producing cells.
(§2) On day 6 after priming the umbilical cord blood cells or mouse bone marrow cells for differentiation, total RNA was extracted to perform quantitative real-time PCR, similarly to the method of Example 1.2, and the mRNA expression of insulin and beta cell differentiation-related genes (MAFA, PDX1, or NEUROG3) was determined, as shown in FIGS. 4 (in primed umbilical cord blood cells) and 5 (in primed mouse bone marrow cells).
Umbilical cord blood cells were isolated in the same manner as in Example 1.3, and the differentiation effect on culture medium was determined. […] On day 6 after the culture, the expression levels of genes were compared in the cells in which differentiation was induced in the DMEM or CMRL1066 culture medium, respectively, using RT-PCR and quantitative real-time PCR. The conditions for quantitative real-time PCR were the same as in Example 1.2, and RT-PCR was performed with the following steps; 1) initial denaturation of 94° C. for 5 minutes; 2) amplification of 94° C. for 30 seconds, 60° C. for 30 seconds, and 72° C. for 1 minute by repeating the cycle 30 times; 3) final extension of 72° C. for 10 minutes.
Cells were collected on day 6 after the culture to confirm the appearance of insulin-producing cells.

Assay [3] has as its system mouse bone marrow cells. In words: Differentiation of mouse bone marrow cells into insulin-producing cells, RT-PCR / quantitative real-time PCR. The assay is classed as cell-based. As to conditions: for insulin expression compared to the control: 10 mM each, 6 days, DMEM. The protocol:
Mouse bone marrow cells were isolated from 8-week-old male C57BL/6 mice (Orientbio Inc.) in the same manner as in Example 1.1. Bone marrow cells in DMEM culture medium (Dulbecco's Modified Eagle's Medium) (standard medium) containing 5.5 mM glucose, 10% FBS, and 1% antibiotics were seeded at 5×10^6 cells/ml into a 12-well non-coated plate, treated with glucosamine (GlcN) and putrescine (Put) to a concentration of 10 mM each or together, and cultured for 6 days in suspension for differentiation.
To investigate whether or not insulin-producing cells appeared, the gene expression levels of insulin (INS), MAFA, PDX-1, and NEUROG3 were measured by a quantitative real-time PCR method, as in the method of Example 1.2, which are shown in FIG. 3.
as §1, §2

Assay [4] concerns umbilical cord blood cells. Briefly: Insulin secretion of differentiated umbilical cord blood cells, insulin ELISA. As to conditions: BP-1-102 added on day 4; primed 6 days, then 3 days in CMRL1066 with 11 mM glucose; supernatant ELISA. For orientation: ELISA stands for enzyme-linked immunosorbent assay.
Where [5] appears, read: added to 5 mM putrescine, 5 mM glucosamine, 10 mM nicotinamide in CMRL1066, JSI-124 0.1 μM, CPT 1 μM, BP-1-102 10 μM, day 6.

SMILES strings stand for the structures. Read-outs that look alike come from different tables or passages of the source. A value given as a limit tells only on which side of the number the result lay.

As for `NCCCCN` [putrescine, 1,4-diaminobutane], the “mRNA expression of insulin (INS), MAFA, PDX1, and NEUROG3” value in assay [1] is on record as “significantly increased”. For the same compound, the “mRNA expression of beta cell-specific genes (INS, MAFA, and NEUROG3)” value in assay [2] (5 mM putrescine, 6 days, DMEM, compared to control cells without putrescine) is listed as “significantly increased”. The “gene expression levels for insulin and the factors that promote the beta cell differentiation” value in assay [2] (putrescine at a concentration of 5 mM or more (0.1 to 20 mM tested), 6 days) is reported as “significantly increased”. In addition, in assay [3], the “insulin expression compared to the control” value was determined as 4.3 fold.
For the compound `C[C@H]1COC2=C1C(=O)C(=O)c1c2ccc2c1CCCC2(C)C` [CPT], the “mRNA expression levels of insulin and beta cell differentiation-related genes, order among STAT3 inhibitors” value in assay [2] (setting [5]) is reported as “significantly increased in the order of CPT <JSI-124<BP-1-102”.
As to `CC(C)(O)/C=C/C(=O)[C@](C)(O)C1[C@H](O)C[C@@]2(C)[C@@H]3CC=C4C(C=C(O)C(=O)C4(C)C)[C@]3(C)C(=O)C[C@]12C` (stereo partly drawn) [JSI-124], the “mRNA expression levels of insulin and beta cell differentiation-related genes, order among STAT3 inhibitors” value in assay [2] (setting [5]) is given as “significantly increased in the order of CPT <JSI-124<BP-1-102”. Besides, the “mRNA expression levels of insulin (INS) and beta cell differentiation-related genes (PDX1, NEUROG3, or NEUROD1)” value in assay [3] (100 nM added on day 4 after the culture, compared to treatment at other time points (day 0, 2)) is on record as “significantly increased”. The “expression levels of genes promoting differentiation into insulin-producing cells” value in assay [3] (STAT3 inhibitor 100 nM added on day 0, 2 or 4 to glucosamine, putrescine and nicotinamide in CMRL 1066, collected day 6) is on record as “increased”.
As to `CN(CC(=O)N(Cc1ccc(C2CCCCC2)cc1)c1ccc(C(=O)O)c(O)c1)S(=O)(=O)c1c(F)c(F)c(F)c(F)c1F` [BP-1-102], in assay [2], the “mRNA expression levels of insulin and beta cell differentiation-related genes, order among STAT3 inhibitors” value is reported as “significantly increased in the order of CPT <JSI-124<BP-1-102”; the “mRNA expression of insulin compared to treatment only with glucosamine, putrescine, and nicotinamide” value is not below 3 fold. In addition, the “insulin secretion compared to only three differentiation-inducing factors (glucosamine, putrescine, and nicotinamide)” value in assay [4] is not below 10 fold.
On to `N[C@H]1C(O)O[C@H](CO)[C@@H](O)[C@@H]1O` (stereo partly drawn) [glucosamine], for which, in assay [3], the “insulin expression compared to the control” value is 2 fold.
